Assay results reported in patent US8742121B2, “Process for the preparation of small molecule inhibitors of MDM2 and intermediates used therein” (The Regents of the University of Michigan, priority 2005, dated 2014).
Where two headings read alike, the source gives them in different places.

Tests used:
[1] = molecular target: T1, recombinant human MDM2 protein (residues 1-118, His-tag) (Homo sapiens, UniProt Q00987); assay: Fluorescence polarization (FP)-based competitive binding assay with PMDM6-F probe; settings: for Ki: competition with PMDM6-F, FIG. 4B/5
T1 construct: The recombinant MDM2 human protein (residues 1-118) fused to His-tag at the N terminus; His-tag (N)

[2] = tested on: LNCaP prostate cancer cells (p53 wild-type); assay: WST-8 cell growth inhibition assay, LNCaP; assay type: cell-based; settings: Homo sapiens, 96 h
[3] = molecular target: T2, p53-MDM2 interaction (Homo sapiens, UniProt Q00987); assay: Co-immunoprecipitation/Western blotting of p53-MDM2 interaction in HCT116 lysates; assay type: biochemical; settings: increasing concentrations, 1 h at 4° C., FIG. 10
T2 construct: endogenous in cells; host or cells: HCT116 colon cancer cells (lysate)
Protocol: Co-immunoprecipitation (Co-IP)/Western blotting assays were performed to assess the effects of Ke-43 on p53-MDM2 interaction. After harvesting and washing once with cold PBS, HCT116 colon cancer cells were lysed by sonication in cold Co-IP buffer (50 mM Tris (pH 7.5), 150 mM NaCl, 1 mM EDTA (pH 8.0), 0.5% NP-40) containing 1 mM phenylmethylsulfonyl fluoride and protease inhibitor cocktail. Sonicated lysates were then centrifuged at 12,000×g at 4° C. for 15 minutes. Supernatant containing 2 mg protein was incubated in the absence or presence of Ke-43 for 1 h at 4° C., followed by addition agarose beads, conjugated either with anti-p53 antibody (FL-393, Santa Cruz) or with a non-specific antibody. After mixing for 2 h at 4° C., the agarose beads were washed 3 times with cold Co-IP buffer, boiled in sample buffer followed by SDS-PAGE and the presence of p53 and MDM2 was detected by Western blotting with mouse monoclonal antibodies against p53 and MDM-2 proteins.

[4] = tested on: HCT116 (wild-type p53) colon cancer cells; assay: WST-8 cell growth inhibition assay, HCT116; assay type: cell-based
[5] = tested on: RKO (wild-type p53) colon cancer cells; assay: WST-8 cell growth inhibition assay, RKO; assay type: cell-based
[6] = tested on: p53, MDM2 and p21 expression in RKO (wild-type p53) cells; assay: Western blot of p53 and its target gene products MDM2 and p21; assay type: cell-based; settings: 24 hours; RKO compared with HT-29 (mutant p53), FIG. 12
Protocol: Cancer cells were treated with test compounds or 0.1% DMSO for 24 hours. Cells were harvested by trypsinization and washed with cold phosphate buffer saline, pH 7.5 (Invitrogen, Carlsbad, Calif.). Cells were lysed for 30 minutes in ice-cold lysis buffer (50 mM Tris (pH 7.5), 150 mM NaCl, 1 mM EDTA (pH 8.0), 25 mM sodium fluoride, 1% NP-40 and 0.1% SDS) containing 2 mM sodium orthovanadate, 1 mM phenylmethylsulfonyl fluoride and protease inhibitor cocktail (Roche Applied Science, Indianapolis, Ind.). Next, cell extracts were centrifuged at 12,000×g at 4° C. for 10 minutes to obtain clarified lysates. Protein was estimated by Bio-Rad dye. Cell lysates containing […] protein were resolved on a 4-20% tris-glycine gel (Invitrogen, Carlsbad, Calif.) and transferred onto poly(vinylidene difluoride) membranes. Immunodetection of proteins on the transfer membrane was performed by using anti-p53 (Ab-6, Oncogene Research Products, Boston, Mass.), anti-MDM2 (SMP14, Santa Cruz Biotechnology, Santa Cruz, Calif.) and anti-p21 (BD Biosciences, San Diego, Calif.) mouse monoclonal antibodies. Antibody to β-actin (Sigma, St Louis, Mo.) was used to assess the protein loading.

[7] = tested on: RKO (wild-type p53) colon cancer cells; assay: Cell death (trypan blue) and apoptosis (sub-diploid DNA, PI staining); assay type: cell-based; settings: 4 days; RKO compared with HT-29 and CCD-18Co, FIG. 13
Protocol: RKO (wild-type p53) and HT-29 (mutant p53) colon cancer cell lines and CCD-18Co normal colon fibroblast cells were treated with increasing doses of Ke-43 or Ke-61 for 4 days in 6-well Petri dishes. Trypan blue dye exclusion assays were performed to determine the ability of the inhibitors to induce cell death. After 4 days of treatment, floating and adherent cells were harvested and stained with 0.2% of trypan blue solution (Sigma, St Louis, Mo.). Each treatment was performed in triplicate and at least 100 cells were counted. Cells stained blue or morphologically unhealthy cells were scored as dead cells. To evaluate apoptosis, sub-diploid DNA content in cells treated with or without test inhibitors was analyzed by propidium iodide (PI) staining After washing once with cold PBS, cells were fixed in 70% ethanol for 1 day at −20° C. Ethanol-fixed cells were then washed twice with PBS and stained with a staining solution containing propidium iodide (PI) at 50 ng/ml and RNAse A at 100 ng/ml in PBS, for 20 minutes in dark at room temperature. Acquisition of cells and analysis of sub-diploid DNA content was performed by flow cytometry using CellQuest software.

[8] = tested on: RKO (wild-type p53) colon cancer cells; assay: Cell cycle progression (BrdU/7-AAD flow cytometry), RKO; assay type: cell-based; settings: 22 + 2 hours, FIG. 14
Protocol: (§1) Cell cycle progression was evaluated in RKO (wild-type p53) and HT-29 (mutant p53) colon cancer cell lines and CCD-18Co normal colon fibroblast cells by determining S-phase cells by incorporation of bromodeoxyuridine (BrdU) followed by staining with FITC-labeled anti-BrdU antibody and the total DNA-content by staining with 7-aminoactinomycin D (7-AAD) according to manufacturer's instructions (BD Biosciences, San Jose, Calif.). Briefly, cancer and normal cells, after overnight incubation, were treated with out test compounds for 22 hours, followed by an additional 2 hours of incubation with 10 μM of BrdU. Cells were harvested, fixed and stained with FITC-labeled anti-BrdU and 7-AAD. Cell cycle distribution was analyzed by flow cytometry. Cells were acquired and data analyzed by using CellQuest software (BD Biosciences).

[9] = tested on: CCD-18Co normal colon fibroblast cells; assay: Cell cycle progression (BrdU/7-AAD flow cytometry), CCD-18Co; assay type: cell-based; settings: 22 + 2 hours, FIG. 14
Protocol: as §1

[10] = tested on: HT-29 (mutant p53) colon cancer cells; assay: Cell cycle progression (BrdU/7-AAD flow cytometry), HT-29; assay type: cell-based; settings: HT-29, 22 + 2 hours, FIG. 14
Protocol: as §1

[11] = tested on: normal human prostate epithelial cells (PrEC) with wild-type p53; assay: WST-8 cell growth inhibition assay, PrEC; assay type: cell-based
[12] = tested on: PC-3 prostate cancer cells (p53 null); assay: WST-8 cell growth inhibition assay, PC-3
[13] = tested on: PrEC normal prostate epithelial cells; assay: Protection of normal cells from TAXOL (trypan blue viability); assay type: cell-based, human; settings: pretreatment 1 μM and 2.5 μM for 24 hours, then 1 μM TAXOL for 2 days, FIG. 15
Protocol: PrEC normal prostate epithelial cells were seeded in 6 well pates and incubated with Ke-63 (1 μM and 2.5 μM) for 24 hours, then 1 μM TAXOL (paclitaxel) was added for 2 days. Trypan blue was used to determine cell viability.

[14] = 4 days, FIG. 6, read-out: IC50 inhibition of cell growth

CCC[C@H]1N[C@@H](C(=O)N(C)C)[C@H](c2cccc(Cl)c2)[C@@]12C(=O)Nc1cc(Cl)ccc12 [Example 1e, (2′R,3S,4′R,5′R) 6-Chloro-4′-(3-Chloro-Phenyl)-2-Oxo-2′-Propyl-1,2-Dihydro-Spiro[Indole-3,3′-Pyrrolidine]-5′-Carboxylic Acid Dimethylamide]
Ki [1]: 0.65 µM
IC50 [2, 14]: 2.7 µM

CC(C)(C)C[C@H]1N[C@@H](C(=O)NCCN2CCOCC2)[C@H](c2cccc(Br)c2)[C@@]12C(=O)Nc1cc(Cl)ccc12 [Ke-43, (2′R,3S,4′R,5′R) 6-Chloro-4′-(3-Bromo-Phenyl)-2′-(2,2-Dimethyl-Propyl)-2-Oxo-1,2-Dihydro-Spiro[Indole-3,3′-Pyrrolidine]-5′-Carboxylic Acid (2-Morpholin-4-yl-Ethyl)-Amide]
Ki values (in words) ([1]; Example 132, FIG. 9, more potent than the natural p53 peptide): low nM to sub-nM range
immunoprecipitation of MDM2 by anti-p53 antibody [3]: disrupts the interaction between p53 and MDM2
growth inhibitory activity ([4]; HCT116, 4 days, FIG. 11): potent growth inhibitory activity
specificity over cancer cells expressing mutant p53 (HT-29) ([4]; HCT116 versus HT-29): greater than 18 fold
specificity over cancer cells expressing mutant p53 (HT-29) ([5]; RKO versus HT-29): greater than 13 fold
growth inhibitory activity ([5]; RKO, 4 days, FIG. 11): potent growth inhibitory activity
accumulation of p53 and its target gene-products [6]: induced accumulation of p53 and its target gene-products only in RKO cells expressing wild-type p53
apoptosis [7]: Only cancer cells expressing wild-type p53 underwent apoptosis
S-phase / cell cycle progression [8]: dose-dependent depletion of S-phase
S-phase / cell cycle progression [9]: dose-dependent depletion of S-phase
cell cycle progression [10]: no appreciable effect on cell cycle progression

CN(C)C(=O)[C@@H]1N[C@H](CC(C)(C)C)[C@]2(C(=O)Nc3cc(Cl)ccc32)[C@H]1c1cccc(Cl)c1 [Example 1d, (2′R,3S,4′R,5′R) 6-Chloro-4′-(3-Chloro-Phenyl)-2-Oxo-2′-(2,2-Dimethylpropyl)-1,2-Dihydro-Spiro[Indole-3,3′-Pyrrolidine]-5′-Carboxylic Acid Dimethylamide]
IC50 ([2]; read-out: IC50 inhibition of cell growth): 0.83 µM
IC50 ([11]; Homo sapiens, 96 h, PrEC, 4 days, FIG. 8): 6 µM
times less potent in PrEC cells than in LNCaP cells ([11]; PrEC versus LNCaP): 13 times
IC50 ([12]; Homo sapiens, 96 h, read-out: IC50 inhibition of cell growth): 22.5 µM
times less active in PC-3 cells than in LNCaP cells ([12]; PC-3 versus LNCaP): 27 times

CC(C)C[C@H]1N[C@@H](C(=O)N(C)C)[C@H](c2ccc(Cl)cc2)[C@@]12C(=O)Nc1cc(Cl)ccc12 [Example 1c, (2′R,3S,4′R,5′R) 6-Chloro-4′-(4-Chloro-Phenyl)-2′-Isobutyl-2-Oxo-1,2-Dihydro-Spiro[Indole-3,3′-Pyrrolidine]-5′-Carboxylic Acid Dimethylamide]
Ki [1]: 7.7 µM
times less potent than 1b (Ki) ([1]; relative to 1b): 26 times

CC(C)C[C@H]1N[C@@H](C(=O)N(C)C)[C@H](c2cccc(Cl)c2)[C@@]12C(=O)Nc1cc(Cl)ccc12 [Example 1b, (2′R,3S,4′R,5′R) 6-Chloro-4′-(3-Chloro-Phenyl)-2′-Isobutyl-2-Oxo-1,2-Dihydro-Spiro[Indole-3,3′-Pyrrolidine]-5′-Carboxylic Acid Dimethylamide]
Ki [1]: 0.3 µM
times more potent than 1a (Ki) ([1]; relative to 1a): 28 times
IC50 [2, 14]: 2.1 µM

CC(C)(C)C[C@H]1N[C@@H](C(=O)NCCN2CCOCC2)[C@H](c2cccc(Cl)c2F)[C@@]12C(=O)Nc1cc(Cl)ccc12 [Ke-63, (2′R,3S,4S,5′R) 6-Chloro-4′-(3-Chloro-2-Fluoro-Phenyl)-2′-(2,2-Dimethyl-Propyl)-2-Oxo-1,2-Dihydro-Spiro[Indole-3,3′-Pyrrolidine]-5′-Carboxylic Acid (2-Morpholin-4-yl-Ethyl)-Amide]
protection of cells from TAXOL (cell viability) [13]: cells were protected from TAXOL

COc1ccc2c(c1)NC(=O)[C@]21[C@@H](CC(C)(C)C)N[C@@H](C(=O)N(C)C)[C@@H]1c1cccc(Br)c1 [Ke-61, (2′R,3S,4′R,5′R) 4′-(3-Bromo-Phenyl)-2′-(2,2-Dimethyl-Propyl)-6-Methoxy-2-Oxo-1,2-Dihydro-Spiro[Indole-3,3′-Pyrrolidine]-5′-Carboxylic Acid Dimethylamide]
S-phase / cell cycle progression [8]: did not have a significant effect
S-phase / cell cycle progression [9]: did not have a significant effect
cell cycle progression [10]: did not have a significant effect

CC(C)CC[C@H]1N[C@@H](C(=O)N(C)C)[C@H](c2cccc(Cl)c2)[C@@]12C(=O)Nc1cc(Cl)ccc12 [Example 1f, (2′R,3S,4′R,5′R) 6-Chloro-4′-(3-Chloro-Phenyl)-2′-(3-Methyl-Butyl)-2-Oxo-1,2-Dihydro-Spiro[Indole-3,3′-Pyrrolidine]-5′-Carboxylic Acid Dimethylamide]
Ki [1]: 0.39 µM
IC50 [2, 14]: 1.9 µM
